Test results taken from US20200087625A1, “METHODS FOR ISOLATING, EXPANDING AND ADMINISTERING CANCER SPECIFIC CD8+ T CELLS” (priority 2017, published 2020).

Assays:
[1] = tested on: LLC-GLF cells; test: IV metastasis model of Lewis lung carcinoma (LLC); assay type: in vivo, mice; details: systemic 1V270 day -1
Protocol: FIGS. 27A-27D. […] Therapeutic effects of 1V270 were evaluated in IV metastatic models of 816 melanoma (A, B) and LLC (C, D). BG-albino mice (n=B-10) (A, C), C57BL6 wild type mice (n=15-20) (B and D), were i.p. administered with 200 μg 1V270 or vehicle!iNext day, 5×10^5 B16-GLF cells (A) or 1×10^5 LLC-GLF cells (c) were i.v. administered (A,C). The tumor signals were quantified by IVIS at day 14. […] (B,D) The mice were monitored daily and were euthanized upon reaching the criteria according to UCSD IACUC guidelines. The survival data were analyzed by Log-Rank test. Data were pooled from 2 independent experiments showing similar results and were analyzed by Living Image® software. […] Statistical differences were analyzed by the Mann-Whitney U test comparing 1V270 treatment groups against the vehicle. **P<0.05.
GFP and luciferase (GLF)-expressing tumor cells (2×10^4 of 4T1-GLF, 5×10^5 of B16-GLF, and […] of LLC-GLF) were i.v. injected into BALB/c mice for 4T1 models, BG-albino or wild-type C57BU6 for B16 melanoma or LLC models). […] Image data were acquired by 1 Ss exposure using the IVIS Spectrum and analyzed using the Living Image software, version 4.5.2 (Perkin Elmer, Waltham, Mass.). We confirmed that the tumor signals in the lungs at day 10 correlated with the number of lung metastasis determined on day 21, as well as the overall survival (Supplemental figures 10). […]

[2] = Serum cytokine analysis (Luminex) after systemic administration; assay type: in vivo, BALB/c mice; details: i.p. 185 nmol/injection; sera 2, 4, 6, 24 hours; 1V270 vs 1V136
Protocol: FIG. 36. […] BALB/c mice (n=5) were i.p. administered IV270 (200 μg=185 nmol/injection) or […] (58 μg=185 nmol/injection) and sera were collected 2, 4, 6, and 24 hours following the administration. The levels of TNFα, IL-12, and IP-IO were measured by Luminex assay. *P<0.05, **P<0.01 by two way ANOVA using a Bonferroni post hoc test comparing treatment groups.
The sera were collected from mice receiving […] of 1V136, 1V270 or vehicle 2, 4, 6, and 24 hours after i.p. administration (15). Cytokine levels in sera were determined by Luminex bead assays (MILLIPLEX™ MAP kit, Millip ore, Billerica, Mass.).

[3] = tested on: NK cells and MDSC; test: Innate immune cell recruitment to the lungs (flow cytometry); assay type: in vivo, BALB/c mice; details: 1V270 day -1; vs vehicle
Protocol: FIGS. 25A-25F. Innate immune cells, NK cells and dendritic cells are activated following 1V270 therapy and contribute to anti-metastatic effects (A-C) Systemic administration of 1V270 activates dendritic cells and increases CD8^+ cell recruitment in the lung draini lymph node. (A) BALB/c mice (n=S/group) were treated with 1V270 on day −1 and then tumor cells were i.v. administered on day 0. Seven days later, mediastinal lymph node (mLN) cells were stained for dendritic cells (DC; CD45^+CD11c^+MHC classll^+). (B) DCs were further stained for CD80 and CD86. (C) The mLN cells were also stained for central memory CD8^+ T cells (CD3+CD8^+CD44^+CD62L^+), effector memory CD8^+ T cells (CD3+CD8^+CD44^+CD62L^+), and naive CD8^+ T cells (CD3+CD8^+CD44^−CD62L^−). Each dot indicates an individual mouse and horizontal and vertical bars indicate means±SEM. […] Tumor signals were quantified by IVIS. […] On the next day, lung cells were stained for NK markers (CD45^+[…] NKp46^+CD49^+) and analyzed by flow cytometry. […] Tumor signals were analyzed as described above. […]
FIGS. 33A-33C. […] Next day, single cell suspensions derived from the lungs were stained for (A) NK cells (CD45^+CD3^−NKp46^+CD49^+), (B) M-MDSCs (CD45^+CD11b^+Ly6G^−Ly6^high) and (C) PMN-MDSCs (CD45^+CD11b^+Ly6G^+) were analyzed by flow cytometric assay. […]

## CCCCCCCCC=CCCCCCCCC(=O)OCC(COP(=O)(O)OCCNC(=O)c1ccc(Cn2c(=O)[nH]c3c(N)nc(OCCOC)nc32)cc1)OC(=O)CCCCCCCC=CCCCCCCCC (centres unmarked) [1V270]
[1]; LLC-GLF, day 14
  lung metastasis (IVIS tumor signal): inhibited lung metastasis by day 14
[1]; LLC
  mouse survival: prolonged mouse survival
[2]
  serum cytokine induction (TNFα, IL-12, IP-10): significantly lower levels of cytokine induction
[3]
  population of NK cells recruited to the lungs: Significantly increased populations
  population of monocytic-MDSC recruited to the lungs: Significantly increased populations
